# In publication PMC12267471, “Discovery of natural scaffolds as HER2 inhibitors for breast cancer: virtual screening, molecular dynamics, and biological characterization with selectivity profiling” (Scientific Reports, 2025):
# Columns and labels:
# [1] = molecular target: T1, HER2 kinase (Homo sapiens, UniProt P04626); test: Z'-LYTE Kinase Assay-Tyr6 Peptide biochemical HER2 kinase assay; conditions: for IC50: Tyr6 peptide substrate, read-out: IC50, inhibition of ATP-induced HER2 phosphorylation
# T1 construct: HER2 purified kinase domain (amino acids 676–1255); purchased Thermo Fischer Scientific PV3590
# Description: The Z’-LYTE™ Kinase Assay-Tyr6 Peptide kit (Thermo Fischer Scientific™, Madison, WI, USA) was employed to evaluate the potential of selected natural products to suppress the catalytic activity of HER2 kinase. The assay adopts a Fluorescence Resonance Energy Transfer (FRET) based method in a cell-free coupled-enzyme format with no use of antibodies. The assay method mainly relies on the difference in sensitivity of phosphorylated and non-phosphorylated peptides to proteolytic cleavage. This method is a ratio metric method that calculates the Emission Ratio of donor emission divided by acceptor emission after excitation of the donor fluorophore at 400 nm. In this assay, 20 µL/well reactions containing kinase buffer, 200 µM ATP, 4µM Z’-LYTE Tyr6 Peptide substrate, 2500 ng/mL HER2 kinase, and drugs of interest functioning as inhibitors were set up in 96-well plates. Each well received 10 µL of site-specific protease development solution after one hour of room temperature incubation. The incubation continued for a full hour. Following process termination, the kinase inhibitory activity and/or peptide substrate cleavage status were assessed using a plate reader (BioTek FLx800™) to measure the ratio of fluorescence signal at 445 nm (coumarin)/520 nm (fluorescein).
# The IC50 value for each natural product was computed using XLfit® 4.1 software (ID Business Solutions Inc. (IDBS), Emeryville CA), applying non-linear regression of log concentration against the percentage of HER2 inhibition.
# Utilizing the Z’-LYTE™ Kinase Assay-Tyr6 Peptide kit as a cell-free system for evaluating the inhibitory activity of HER2, the five natural products were evaluated for their capacity to inhibit HER2 phosphorylation. Since its kinase catalysis is necessary for all HER2-mediated activities, we attempted at this initial stage to validate the HER2 inhibitory ability of the five in silico hits directly on the HER2 purified kinase domain (amino acids 676–1255), that was in vitro phosphorylated to attain the maximum level of intrinsic kinase activity. In this assay, the substrate was Z’-LYTE™ Tyr6 peptide; thus, the changes in its phosphorylation can directly correlate with the HER2 kinase activity. In the meantime, tyrphostin AG 1478 was used as a positive control to ensure the validity of the assay. Lapatinib (Tykerb®) was included as a second positive control to benchmark virtual hits’ performance against clinically approved standards.
# [2] = system: SKBR3 cells; test: MTT proliferation assay, SKBR3; assay type: cell-based, human
# [3] = system: BT-474 cells; test: MTT proliferation assay, BT-474; assay type: cell-based, human
# [4] = system: ERBB4; parameters: method as in earlier work; conditions: Table S1; cited from earlier work
# [5] = system: ERBB2; parameters: method as in earlier work; conditions: Table S1; cited from earlier work
# [6] = system: EGFR; parameters: method as in earlier work; conditions: Table S1; cited from earlier work
# [7] = system: MCF10A cells; test: MTT cytotoxicity assay, non-tumorigenic MCF10A; assay type: cell-based, human
# [8] = system: BT-474 cells; test: Wound healing assay, BT-474; assay type: cell-based; conditions: Homo sapiens
# Procedure: (§1) In a sterile flat-bottom 24-well plate, SKBR3 and BT-474 breast cancer cells were plated at a density of 1 × 10^5 cells/well. […] Wounds were then inflicted across each cell monolayer using a sterile 200 µL pipette tip. Media was aspirated, and cells were washed twice with PBS to remove floating cells and cell debris. Fresh serum-free media was placed up against the well wall to cover the bottom of the well and prevent further cell detachment. Incubation of cells was resumed for five hours at 37 °C in a humidified CO2 incubator. Subsequently, the media were substituted with fresh ones containing various doses of liquiritin, oroxin B, or DMSO as a vehicle control (3 replicates/group) along with EGF (100 ng/mL) as a scattering factor. Wound closure was microscopically monitored in vehicle-treated control wells, and the time frame for wound closure was determined to be 72 h. Before the closure of wounds in the vehicle-treated control wells, the media were removed, cells were washed with PBS and completely fixed using cold methanol for 20 min at 4 °C. An inverted VistaVision microscope was used to take pictures of the wounds monitored at zero and 72 h with a VistaVision Still camera (VWR, Radnor, PA).
# (§2) Results were expressed as a percentage of cell migration according to the following Equation[16]: [drawing 2]
# (§3) Where Tt is the wound thickness in treatment wells, TDMSO is the thickness of the wound in control wells treated by DMSO, and Tº is the thickness of the wound at zero time. Wound thickness was calculated in three or more randomly selected fields per treatment group.
# [9] = system: SKBR3 cells; test: Wound healing assay, SKBR3; assay type: cell-based; conditions: Homo sapiens
# Procedure: as §1, §2, §3
# [10] = Homo sapiens, SK-BR-3, SKBR3, MTT, 48 h (Table S8), read-out: Cell growth inhibition IC50
# [11] = Homo sapiens, BT-474, MTT, 48 h (Table S8), read-out: Cell growth inhibition IC50
# [12] = Homo sapiens, BT-474, Table S9, read-out: IC50
# T1 sequence (P04626 676-1255): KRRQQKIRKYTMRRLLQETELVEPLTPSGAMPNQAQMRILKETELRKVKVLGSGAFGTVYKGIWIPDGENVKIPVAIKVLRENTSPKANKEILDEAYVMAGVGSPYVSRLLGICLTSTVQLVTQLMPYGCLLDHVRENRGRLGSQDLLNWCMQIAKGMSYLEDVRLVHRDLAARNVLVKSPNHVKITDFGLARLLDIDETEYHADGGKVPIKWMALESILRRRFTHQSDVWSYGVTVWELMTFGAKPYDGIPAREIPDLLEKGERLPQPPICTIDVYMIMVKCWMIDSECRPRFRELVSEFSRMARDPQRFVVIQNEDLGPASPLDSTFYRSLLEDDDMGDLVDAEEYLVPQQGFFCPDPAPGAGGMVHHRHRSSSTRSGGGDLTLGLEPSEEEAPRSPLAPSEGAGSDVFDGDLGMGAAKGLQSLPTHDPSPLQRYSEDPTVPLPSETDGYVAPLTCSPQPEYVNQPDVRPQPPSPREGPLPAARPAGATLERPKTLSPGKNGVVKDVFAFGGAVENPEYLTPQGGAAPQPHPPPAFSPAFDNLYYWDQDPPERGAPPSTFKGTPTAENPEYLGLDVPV
smiles,measurement,setting,value
"OC[C@H]1O[C@@H](Oc2cc3c(O[C@@H]4O[C@H](CO)[C@@H](O)[C@H](O)[C@H]4O)cc(O)cc3[o+]c2-c2cc(O)c(O)c(O)c2)[C@H](O)[C@@H](O)[C@@H]1O [Delphin, Delphinidin-3,5-O-diglucoside]",suppression of HER2 phosphorylation,[1]; cell-free Z'-LYTE,no discernible suppression
OC[C@H]1O[C@@H](Oc2cc(O)cc(/C=C/c3ccc(O[C@@H]4O[C@H](CO)[C@@H](O)[C@H](O)[C@H]4O)cc3O)c2)[C@H](O)[C@@H](O)[C@@H]1O [Mulberroside A],IC50,[2]; [10],11 µM
same,IC50,[1]; cell-free Z'-LYTE,0.0377 µM
same,IC50,[3]; [11],5.9 µM
COc1cc2ncnc(Nc3ccc(F)c(Cl)c3)c2cc1NC(=O)/C=C/CN1CCCCC1 [Dacomitinib],IC50,[4],[…]
same,IC50,[6],0.006 µM
O=c1cc(-c2ccccc2)oc2cc(O[C@@H]3O[C@H](CO[C@@H]4O[C@H](CO)[C@@H](O)[C@H](O)[C@H]4O)[C@@H](O)[C@H](O)[C@H]3O)c(O)c(O)c12 [Oroxin B],IC50,"[7]; Homo sapiens, MCF-10A, MCF10A, MTT, 24 h",53 ± 2.1 µM
same,selectivity index (SI),[7]; IC50 MCF10A / IC50 BT-474,7.7
same,selectivity index (SI),[7]; IC50 MCF10A / IC50 SKBR3,4.5
same,IC50,"[8]; BT-474, read-out: IC50, cell migration",> 20 µM
same,inhibition at 3 µM,"[8]; BT-474, 3 µM, 72 h, read-out: inhibition of cell migration",18.9%
same,inhibition at 7 µM,"[8]; BT-474, 7 µM, 72 h, read-out: inhibition of cell migration",26.5%
same,inhibition at 10 µM,"[8]; BT-474, 10 µM, 72 h, read-out: inhibition of cell migration",29.5%
same,inhibition at 20 µM,"[8]; BT-474, 20 µM, 72 h, read-out: inhibition of cell migration",38.6%
same,IC50,[2]; [10],11.9 µM
same,IC50,"[2]; Homo sapiens, SK-BR-3, SKBR3, Table S9, read-out: IC50",11.9 ± 0.8 µM
same,IC50,"[9]; SK-BR-3, read-out: IC50, cell migration",> 36 µM
same,inhibition at 6 µM,"[9]; SK-BR-3, SKBR3, 6 µM, 72 h, read-out: inhibition of cell migration",23.5%
same,inhibition at 12 µM,"[9]; SK-BR-3, SKBR3, 12 µM, 72 h, read-out: inhibition of cell migration",26.5%
same,inhibition at 18 µM,"[9]; SK-BR-3, SKBR3, 18 µM, 72 h, read-out: inhibition of cell migration",31.1%
same,inhibition at 36 µM,"[9]; SK-BR-3, SKBR3, 36 µM, 72 h, read-out: inhibition of cell migration",34.8%
same,IC50,[1]; cell-free Z'-LYTE,0.0121 µM
same,IC50,[3]; [11],6.9 µM
same,IC50,[3]; [12],6.9 ± 0.7 µM
"CS(=O)(=O)CCNCc1ccc(-c2ccc3ncnc(Nc4ccc(OCc5cccc(F)c5)c(Cl)c4)c3c2)o1 [Lapatinib, reference compound]",IC50,"[2]; Homo sapiens, SK-BR-3, SKBR3, MTT, 48 h, read-out: IC50",0.153 µM
same,inhibition at 0.015 µM,[1]; at 15 nM,54%
same,inhibition at 0.03 µM,[1]; at 30 nM,75%
same,IC50,[3]; [11],0.117 µM
same,IC50,"[3]; Homo sapiens, BT-474, MTT, 48 h, read-out: IC50",0.118 µM
"CN[C@@H]1C[C@H]2O[C@@](C)([C@@H]1OC)n1c3ccccc3c3c4c(c5c6ccccc6n2c5c31)C(=O)NC4 [Staurosporine, reference compound]",IC50,[3]; [11],3.2 µM
same,IC50,[3]; [12],3.2 ± 0.3 µM
C[C@@H]1O[C@@H](OC[C@H]2O[C@@H](Oc3cc(O)c4c(=O)cc(-c5ccc(O)cc5)oc4c3)[C@H](O[C@@H]3O[C@@H](C)[C@H](O)[C@@H](O)[C@H]3O)[C@@H](O)[C@@H]2O)[C@H](O)[C@H](O)[C@H]1O [Ligustroflavone],IC50,"[2]; SKBR3, MTT, 48 h (Table S8), read-out: Cell growth inhibition IC50",12.7 µM
same,IC50,[1]; cell-free Z'-LYTE,0.0365 µM
same,IC50,"[3]; BT-474, MTT, 48 h (Table S8), read-out: Cell growth inhibition IC50",6 µM
